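1) Cells in 96-well plates. 2) Compound, 48 h, 5 concentrations. 3) Linear interpolation between surrounding doses. 4) Unreached endpoint = highest concentration. GI50: concentration for 50% inhibition of growth. Definition used: TGI = concentration required for complete inhibition of growth.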
What was measured:
Assay in all cases: inhibition of tumour cell growth, NCI panel, 48 h
[1] = system: T-47D breast
[2] = system: SF-539 CNS
[3] = system: SR leukemia
[4] = system: SNB-75 CNS
[5] = system: SK-OV-3 ovarian
[6] = system: SK-MEL-5 melanoma
[7] = system: HCC-2998 colon
[8] = system: ACHN renal
[9] = system: IGROV1 ovarian
[10] = system: HS 578T breast
[11] = system: MDA-MB-435
[12] = system: CCRF-CEM leukemia
[13] = system: OVCAR-8 ovarian
[14] = system: OVCAR-4 ovarian
[15] = system: BT-549 breast
[16] = system: NCI/ADR-RES ovarian
[17] = system: RPMI-8226 leukemia
[18] = system: HT29 colon
[19] = system: U251 CNS
[20] = system: DU-145 prostate
[21] = system: SF-295 CNS
[22] = system: NCI-H522 lung
[23] = system: A498 renal
[24] = system: MDA-MB-231 breast
[25] = system: SK-MEL-2 melanoma
[26] = system: CAKI-1 renal
[27] = system: HOP-92 NSCLC
[28] = system: OVCAR-5 ovarian
[29] = system: NCI-H23 lung
[30] = system: HCT-116 colon
[31] = system: TK-10 renal
[32] = system: NCI-H460 lung
[33] = system: EKVX NSCLC
[34] = system: SW-620 colon
[35] = system: UACC-62 melanoma
[36] = system: OVCAR-3 ovarian
[37] = system: COLO 205 colon
[38] = system: MALME-3M melanoma
[39] = system: SK-MEL-28 melanoma
[40] = system: PC-3 prostate
[41] = system: SNB-19 CNS
[42] = system: SN12C renal
[43] = system: HCT-15 colon
[44] = system: LOX IMVI melanoma
[45] = system: MCF7 breast
[46] = system: MOLT-4 leukemia
[47] = system: HL-60(TB) leukemia
[48] = system: A549 NSCLC
[49] = system: UO-31 renal
[50] = system: 786-0 renal
[51] = system: K-562 leukemia
[52] = system: UACC-257 melanoma
[53] = system: NCI-H226 lung
[54] = system: SF-268 CNS
[55] = system: KM12 colon
[56] = system: HOP-62 NSCLC
[57] = system: M14 melanoma

COc1ccc(-c2cnc(NC(=O)CCCCCCNC(=O)C(O)(O)C(F)(F)F)s2)cc1
GI50 [1]: 864 nM | TGI [1]: 3780 nM | GI50 [2]: 1370 nM | TGI [2]: > 30800 nM | GI50 [3]: 601 nM | TGI [3]: > 30800 nM | GI50 [4]: 1760 nM | TGI [4]: > 30800 nM | GI50 [5]: 863 nM | TGI [5]: 2270 nM | GI50 [6]: 921 nM | TGI [6]: 2860 nM | GI50 [7]: 1360 nM | TGI [7]: 4530 nM | GI50 [8]: 1010 nM | TGI [8]: 4190 nM | GI50 [9]: 987 nM | TGI [9]: 5310 nM | GI50 [10]: 952 nM | TGI [10]: 10500 nM | GI50 [11]: 1000 nM | TGI [11]: 10200 nM | GI50 [12]: 1340 nM | TGI [12]: > 30800 nM | GI50 [13]: 967 nM | TGI [13]: 6850 nM | GI50 [14]: 2110 nM | TGI [14]: > 30800 nM | GI50 [15]: 1810 nM | TGI [15]: 12900 nM | GI50 [16]: 1610 nM | TGI [16]: 8780 nM | GI50 [17]: 857 nM | TGI [17]: > 30800 nM | GI50 [18]: 946 nM | TGI [18]: > 30800 nM | GI50 [19]: 862 nM | TGI [19]: 3780 nM | GI50 [20]: 1030 nM | TGI [20]: 7670 nM | GI50 [21]: 742 nM | TGI [21]: 1820 nM | GI50 [22]: 908 nM | TGI [22]: 4560 nM | GI50 [23]: 288 nM | TGI [23]: 1530 nM | GI50 [24]: 719 nM | TGI [24]: 2500 nM | GI50 [25]: 1010 nM | TGI [25]: 4490 nM | GI50 [26]: 975 nM | TGI [26]: 7450 nM | GI50 [27]: 561 nM | TGI [27]: 2110 nM | GI50 [28]: 907 nM | TGI [28]: 5500 nM | GI50 [29]: 1230 nM | TGI [29]: 8080 nM | GI50 [30]: 540 nM | TGI [30]: 4410 nM | GI50 [31]: 481 nM | TGI [31]: > 30800 nM | GI50 [32]: 735 nM | TGI [32]: 5790 nM | GI50 [33]: 1970 nM | TGI [33]: > 30800 nM | GI50 [34]: 623 nM | TGI [34]: 2360 nM | GI50 [35]: 662 nM | TGI [35]: 1880 nM | GI50 [36]: 635 nM | TGI [36]: 2110 nM | GI50 [37]: 540 nM | TGI [37]: 1280 nM | GI50 [38]: 1020 nM | TGI [38]: 3360 nM | GI50 [39]: 1370 nM | TGI [39]: > 30800 nM | GI50 [40]: 1210 nM | TGI [40]: > 30800 nM | GI50 [41]: 1280 nM | TGI [41]: 9440 nM | GI50 [42]: 1210 nM | TGI [42]: 10600 nM | GI50 [43]: 1600 nM | TGI [43]: 8010 nM | GI50 [44]: 678 nM | TGI [44]: 1760 nM | GI50 [45]: 1310 nM | TGI [45]: > 30800 nM | GI50 [46]: 1100 nM | TGI [46]: > 30800 nM | GI50 [47]: 1400 nM | TGI [47]: > 30800 nM | GI50 [48]: 1380 nM | TGI [48]: 11500 nM | GI50 [49]: 904 nM | TGI [49]: 3980 nM | GI50 [50]: 1270 nM | TGI [50]: 15100 nM | GI50 [51]: 709 nM | TGI [51]: > 30800 nM | GI50 [52]: 1570 nM | TGI [52]: 24600 nM | GI50 [53]: 2200 nM | TGI [53]: 12000 nM | GI50 [54]: 1130 nM | TGI [54]: 6260 nM | GI50 [55]: 1080 nM | TGI [55]: 5480 nM | GI50 [56]: 1140 nM | TGI [56]: > 30800 nM | GI50 [57]: 1450 nM | TGI [57]: > 30800 nM

— PubChem BioAssay (NCI)
